Results published in publication PMC2696686 (Bioorganic & medicinal chemistry, 2009).

Key:
hDAT [1] = target: T1, hDAT (Homo sapiens, UniProt Q01959); assay: [3H]-WIN-35,428 binding inhibition in N2A neuroblastoma cells expressing hDAT
rDAT [2] = target: T2, rDAT (Rattus norvegicus, UniProt P23977); conditions: pattern previously seen; ref [7]; cited from earlier work
6Xhis-hDAT = 6Xhis-hDAT (Homo sapiens, UniProt Q01959); conditions: 100 μM (−)-cocaine; HEK 293 cells expressing 6Xhis-hDAT
rDAT [3] = target: T2, rDAT; conditions: LLC-PK1 cells expressing rDAT
hDAT [4] = target: T1, hDAT; assay: [3H]-dopamine uptake inhibition in N2A neuroblastoma cells expressing hDAT; type: cell-based; conditions: uptake IC50 higher than binding Ki
[5] = Storage stability of the radioligand by HPLC; type: physicochemical; conditions: 25 days at −20 °C in the dark; initial purity 99%

T1 sequence (Q01959 whole entry): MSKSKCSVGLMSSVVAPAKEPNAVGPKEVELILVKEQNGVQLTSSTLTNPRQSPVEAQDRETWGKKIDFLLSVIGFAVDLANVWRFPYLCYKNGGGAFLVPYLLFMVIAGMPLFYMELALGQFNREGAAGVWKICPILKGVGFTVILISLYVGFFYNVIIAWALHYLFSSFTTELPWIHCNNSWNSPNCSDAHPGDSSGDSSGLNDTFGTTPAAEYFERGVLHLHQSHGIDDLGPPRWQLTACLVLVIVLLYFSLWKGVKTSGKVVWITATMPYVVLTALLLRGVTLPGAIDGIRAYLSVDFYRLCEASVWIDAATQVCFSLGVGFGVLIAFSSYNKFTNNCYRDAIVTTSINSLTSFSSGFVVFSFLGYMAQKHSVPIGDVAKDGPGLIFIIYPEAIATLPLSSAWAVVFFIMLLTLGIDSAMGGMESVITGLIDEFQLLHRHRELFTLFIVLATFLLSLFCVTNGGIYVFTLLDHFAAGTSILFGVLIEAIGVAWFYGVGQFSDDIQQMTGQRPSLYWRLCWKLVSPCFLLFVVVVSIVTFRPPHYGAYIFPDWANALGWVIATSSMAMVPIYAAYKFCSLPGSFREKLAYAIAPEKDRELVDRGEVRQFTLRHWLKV
T2 sequence (P23977 whole entry): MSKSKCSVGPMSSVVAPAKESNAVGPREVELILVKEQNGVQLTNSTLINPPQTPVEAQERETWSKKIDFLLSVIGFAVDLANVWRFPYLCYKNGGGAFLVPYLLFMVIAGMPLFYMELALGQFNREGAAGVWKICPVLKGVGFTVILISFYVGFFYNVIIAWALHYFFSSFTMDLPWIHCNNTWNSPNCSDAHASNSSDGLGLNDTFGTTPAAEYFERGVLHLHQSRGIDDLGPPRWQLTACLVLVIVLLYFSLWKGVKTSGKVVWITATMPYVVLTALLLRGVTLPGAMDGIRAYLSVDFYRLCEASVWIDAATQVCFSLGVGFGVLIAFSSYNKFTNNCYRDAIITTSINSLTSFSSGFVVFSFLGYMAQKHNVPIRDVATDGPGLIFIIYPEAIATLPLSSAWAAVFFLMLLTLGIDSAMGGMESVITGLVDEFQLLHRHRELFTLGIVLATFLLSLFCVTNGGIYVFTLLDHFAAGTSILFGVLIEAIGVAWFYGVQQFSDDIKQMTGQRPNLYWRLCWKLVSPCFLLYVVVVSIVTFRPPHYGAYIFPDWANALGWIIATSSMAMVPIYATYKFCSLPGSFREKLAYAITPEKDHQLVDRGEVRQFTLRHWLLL
Sequence of 6Xhis-hDAT (Q01959 whole entry): as the sequence (Q01959 whole entry) above

CCCC(C(=O)c1ccc(N=[N+]=[N-])c(I)c1)N1CCCC1 (stereo not drawn) [Compound 6, 1-(4-Azido-3-iodophenyl)-2-pyrrolidin-1-yl-pentan-1-one]
DAT affinity, fold higher than bupropion (hDAT [1]; ratio of Ki values versus bupropion): 6 fold
DAT affinity, fold less than pyrovalerone (hDAT [1]; ratio of Ki values versus pyrovalerone): 10 fold

C[C@@H]1CN(CCCn2c3ccccc3c3ccccc32)C[C@H](C)N1 [rimcazole]
Binding versus uptake inhibition value (pattern) (rDAT [2]): essentially the same value

COC(=O)[C@H]1[C@@H](OC(=O)c2ccccc2)C[C@@H]2CC[C@H]1N2C [cocaine, reference compound]
Effect on [125I]-6 photolabeling of DAT (6Xhis-hDAT): blocked
Effect on [125I]-6 photolabeling of DAT (rDAT [3]; 100 μM (−)-cocaine): blocked

CCCC(C(=O)c1ccc(N)cc1)N1CCCC1 (stereo not drawn) [Compound 8, 1-(4-Aminophenyl)-2-pyrrolidin-1-yl-pentan-1-one]
Uptake inhibition IC50 relative to binding Ki (hDAT [4]): essentially the same value

CN1[C@@H]2CC[C@H]1C[C@@H](OC(c1ccccc1)c1ccccc1)C2 [benztropine]
Binding versus uptake inhibition value (pattern) (rDAT [2]): essentially the same value

CCCC(C(=O)c1ccc(N=[N+]=[N-])c([125I])c1)N1CCCC1 (stereo not drawn) [[^125I]-6, [^125I]-1-(4-Azido-3-iodophenyl)-2-pyrrolidin-1-yl-pentan-1-one]
Radiochemical purity after storage (stability) [5]: 92%
Incorporation into DAT on photoactivation (labeled protein of ~80 kDa) (rDAT [3]; 30 nM radioligand, 1 h, 4°C, UV 254 nm, 45 s): incorporation
